The values below come from US20060063143A1, “Immortalized hypothalamic neuronal cell lines” (priority 2002, published 2006).

What all share (assay type): cell-based, mouse
Assay [1] concerns N38 hypothalmic cells. Kind of assay: Microarray (Affymetrix oligonucleotide arrays) of TCAP-1 treated cells, genes regulated at 16 hours. The protocol: RNAs isolated from treated and untreated cells were analyzed on oligonucleotide arrays representing 12,884 mouse genes (Affymetrix, http://www.affymetrix.com). Standard filtering (p<0.005) and hierarchical clustering algorithm (average linage method: GeneSpring software—Silicon Genetics) identified significant changes in the expression of 4, 841/12,885 genes with 166 genes showing 1.5 fold down-regulation and 35 genes up-regulation in the TCAP-1-treated cells compared to the untreated cells. […] A G-protein coupled receptor-related signal transduction pathway is indicated by the regulation of genes, CREM, AKAP8, AKAP95 and PDE6A. […] The upregulation in inducible nitric oxide (INOS), a intracellular voltage-gated chloride channel (CLCN3) and the serotonin transporter (SLC6A4) may reflect the down stream actions of cAMP-mediated signal cascade and indicates the potential for TCAP to be involved in neuronal signaling systems. A role in interneuron communication by TCAP is also indicated by the modulation of genes associated with the regulation of vesicle trafficking. Thus, the TCAP responsive cell lines can be used to screen for modulators of neuronal function that affect growth, differentiation and communication.
The change in expression levels is indicated relative to the untreated control cell for the same time period of 16 hours. Values>1.5 fold or <0.70 fold were considered significant.

Assay [2] deals with NPY-17 (N-38) cells. Kind of assay: Calcium imaging (Fura2): intracellular calcium response to depolarization by KCl. The settings on record: KCl 60 mM, NPY-17 cells. The protocol: FIG. 15 illustrates the neurosecretory response of NPY-17 (N 38) cells. The effect of the addition of KCl (60 mM) on intracellular calcium levels ([Ca2+]i) for the cells pictured is shown. Images of cells shown in the two panels on the right were obtained as per Example 5. Shown is a representative experiment from 6 experiments, n=116 cells in total (FIG. 15, left panel);
Since many of the peptides and enzyme present in the individual cell lines are secretory products, one representative cell line, N-38 (Also known as NPY-17), was studied for its response to depolarization by addition of 60 mM KCl. […] NPY-17 neurons were plated in 60 mm plates. Fura-2/AM loaded GT1-7 neurons were continuously monitored by 340/380 ratiometric digital imaging pre (top right panel) and post (lower right panel) stimulation. […]
Ca2+ imaging experiments were performed with Fura2 (Molecular Probes) using an Olympus IX70 inverted epifluorescence microscope, an Ultrapix camera with an EEV CCD37-10-1-019 chip, a monochromator, and a PC computer with Merlin imaging software (Life Science Resources) using standard Fura2 optics and imaging techniques. […] Intracellular free Ca2+ ([Ca2+]i) concentrations calculated using the Grynkiewicz equation, [Ca2+]i=Kd×□×(R−Rmin)/(Rmax−R) (52).
In general terms: A change in cytosolic calcium serves as a functional read-out for many receptors and channels.

Assay [3] relates to NPY-17 cells. The assay can be described thus: Leptin responsiveness: proteomic (mass spectrometry) analysis of nuclear extracts. The settings on record: 10^-7 M leptin, 20 hours, NPY-17 nuclear extracts, preliminary, +/- protein status. On the procedure: The NPY-17 cells also express leptin receptors and have been studied for leptin responsiveness using both gene array analysis and proteomic analysis. NPY-17 cells were treated with 10^-7 M leptin (recombinant mouse, Bachem Scientific) for 20 hours. Cells were washed with PBS and harvested through centrifugation. Nuclear extracts were prepared and exposed to mass spectrometry analysis. […] The analysis is not considered quantitative, but initially represents a +/− protein status (i.e. the protein is either present or absent in the control or leptin-treated sample).

Setting [4] is: 1 nM TCAP-1, N38 cells, 16 hours post-treatment.
The mark [5] stands for this setting: 1 nM TCAP-1, N38 cells, treated vs untreated.

In the case of “TCAP-1: teneurin C-terminal-associated peptide 1, SEQ ID NO 5 plus amidation signal GRR at C-terminus (QQLLGTGRVQGYDGYFVLSVEQYLELSDSANNIHFMRQSEI; C-terminal GRR amidation signal; Mouse TCAP1)”, in assay [1] (1 nM TCAP-1, 16 hours, relative to untreated control, cluster Growth/Differentiation, probe 92325), the “Fold change PTK7 (Receptor protein tyrosine kinase)” value is reported as 1.53 fold. For the same molecule, the “Fold change GDAP10 (Ganglioside induced diff. protein 10)” value in assay [1] (1 nM TCAP-1, 16 hours, relative to untreated control, cluster Growth/Differentiation, probe 94192) amounted to 1.62 fold. Besides, the “Fold change MMP10 (Matrix metalloproteinase 10)” value in assay [1] (1 nM TCAP-1, 16 hours, relative to untreated control, cluster Growth/Differentiation, probe 94724) is 0.59 fold. Moreover, in assay [1] (1 nM TCAP-1, 16 hours, relative to untreated control, cluster Growth/Differentiation, probe 97353), the “Fold change DLP1/2 (DAB2 interacting protein)” value is on record as 0.68 fold. For the same molecule, in assay [1] (1 nM TCAP-1, 16 hours, relative to untreated control, cluster Growth/Differentiation, probe 98466), the “Fold change P204 (Interferon activatable protein)” value stood at 1.85 fold. For the same molecule, in assay [1] (1 nM TCAP-1, 16 hours, relative to untreated control, cluster Growth/Differentiation, probe 98530), the “Fold change GAS5 (Growth arrest specific transcript)” value is reported as 0.46 fold. Besides, the “Fold change INI1B (Integrase interacting protein 1B)” value in assay [1] (1 nM TCAP-1, 16 hours, relative to untreated control, cluster Growth/Differentiation, probe 99924) was 0.48 fold. The “Fold change MMP1 (Matrix metalloproteinase 1)” value in assay [1] (1 nM TCAP-1, 16 hours, relative to untreated control, cluster Growth/Differentiation, probe 100484) came out at 0.55 fold. Besides, in assay [1] (1 nM TCAP-1, 16 hours, relative to untreated control, cluster Growth/Differentiation, probe 102382), the “Fold change MOP3 (Circadian rhythm regulator)” value was found to be 1.57 fold. In addition, the “Fold change CRD-BP (CRD-binding protein)” value in assay [1] (1 nM TCAP-1, 16 hours, relative to untreated control, cluster Growth/Differentiation, probe 102627) turned out to be 0.59 fold. Moreover, in assay [1] (1 nM TCAP-1, 16 hours, relative to untreated control, cluster Growth/Differentiation, probe 102921), the “Fold change CD95 (Fas antigen)” value came out at 0.61 fold. The “Fold change GBP3 (Guanylate binding protein)” value in assay [1] (1 nM TCAP-1, 16 hours, relative to untreated control, cluster Growth/Differentiation, probe 103202) was found to be 0.63 fold. In assay [1] (1 nM TCAP-1, 16 hours, relative to untreated control, cluster Growth/Differentiation, probe 103441), the “Fold change CAI1 (Casein kinase II)” value was found to be 0.61 fold. Moreover, the “Fold change SSG1 (Steroid sensitive gene 1)” value in assay [1] (1 nM TCAP-1, 16 hours, relative to untreated control, cluster Growth/Differentiation, probe 160298) worked out at 0.62 fold. In assay [1] (1 nM TCAP-1, 16 hours, relative to untreated control, cluster Growth/Differentiation, probe 160373), the “Fold change SDPR (Serum deprivation response protein)” value came out at 0.57 fold. The “Fold change ST7 (Suppressor of tumourigenicity)” value in assay [1] (1 nM TCAP-1, 16 hours, relative to untreated control, cluster Growth/Differentiation, probe 160591) came out at 1.97 fold. In addition, the “Fold change PPAN (Peter Pan homologue)” value in assay [1] (1 nM TCAP-1, 16 hours, relative to untreated control, cluster Growth/Differentiation, probe 160802) was 0.62 fold. For the same molecule, the “Fold change P202 (202 interferon activatable protein)” value in assay [1] (1 nM TCAP-1, 16 hours, relative to untreated control, cluster Growth/Differentiation, probe 161173) was determined as 0.61 fold. For the same molecule, in assay [1] (1 nM TCAP-1, 16 hours, relative to untreated control, cluster Growth/Differentiation, probe 161931), the “Fold change MKI67 (Cell cycle protein regulator)” value is given as 1.70 fold. In addition, the “Fold change CLM2-B (Cytohesin-2)” value in assay [1] (1 nM TCAP-1, 16 hours, relative to untreated control, cluster Processing, probe 93492) worked out at 0.63 fold. In assay [1] (1 nM TCAP-1, 16 hours, relative to untreated control, cluster Processing, probe 95156), the “Fold change ARF1 (ADP ribosylation factor 1)” value is listed as 0.63 fold. For the same molecule, the “Fold change YIPID (Rab-mediated membrane transport)” value in assay [1] (1 nM TCAP-1, 16 hours, relative to untreated control, cluster Processing, probe 99675) was 1.88 fold. In addition, the “Fold change GP25L2 (gp25L brings cargo forward from ER)” value in assay [1] (1 nM TCAP-1, 16 hours, relative to untreated control, cluster Processing, probe 100074) is 1.53 fold. Further, the “Fold change AP4S1 (Adaptor related protein complex)” value in assay [1] (1 nM TCAP-1, 16 hours, relative to untreated control, cluster Processing, probe 104561) was 1.52 fold. Also, the “Fold change RAB10 (Ras oncogene homologue)” value in assay [1] (1 nM TCAP-1, 16 hours, relative to untreated control, cluster Processing, probe 160149) is 1.62 fold. Besides, in assay [1] (1 nM TCAP-1, 16 hours, relative to untreated control, cluster Signalling/Communication, probe 92631), the “Fold change CAMIII (Calmodulin III)” value worked out at 0.53 fold. The “Fold change FNBX (Ferredoxin-NADP reductase)” value in assay [1] (1 nM TCAP-1, 16 hours, relative to untreated control, cluster Signalling/Communication, probe 92754) came to 1.61 fold. In assay [1] (1 nM TCAP-1, 16 hours, relative to untreated control, cluster Signalling/Communication, probe 92767), the “Fold change ALK3 (Bone morphogenic protein receptor)” value worked out at 0.60 fold. In assay [1] (1 nM TCAP-1, 16 hours, relative to untreated control, cluster Signalling/Communication, probe 93456), the “Fold change BMP4 (Bone morphogenic protein-4)” value is recorded as 0.52 fold. Further, in assay [1] (1 nM TCAP-1, 16 hours, relative to untreated control, cluster Signalling/Communication, probe 93914), the “Fold change IL1R (Interleukin 1 receptor)” value is given as 0.60 fold. For the same molecule, the “Fold change CLCN3 (Chloride channel protein 3)” value in assay [1] (1 nM TCAP-1, 16 hours, relative to untreated control, cluster Signalling/Communication, probe 94465) was 1.66 fold. Further, in assay [1] (1 nM TCAP-1, 16 hours, relative to untreated control, cluster Signalling/Communication, probe 95001), the “Fold change AKAP95 (A kinase anchor protein 95)” value turned out to be 0.60 fold. Also, in assay [1] (1 nM TCAP-1, 16 hours, relative to untreated control, cluster Signalling/Communication, probe 98818), the “Fold change GR (Glucocorticoid receptor)” value is reported as 0.66 fold. The “Fold change CREMβ1 (cAMP-responsive element modulator)” value in assay [1] (1 nM TCAP-1, 16 hours, relative to untreated control, cluster Signalling/Communication, probe 100533) is on record as 1.61 fold. In addition, the “Fold change PDE6A (cGMP Phosphodiesterase α)” value in assay [1] (1 nM TCAP-1, 16 hours, relative to untreated control, cluster Signalling/Communication, probe 100696) was 1.68 fold. The “Fold change ERK1 (Mitogen activated protein kinase)” value in assay [1] (1 nM TCAP-1, 16 hours, relative to untreated control, cluster Signalling/Communication, probe 101834) is reported as 0.64 fold. Also, in assay [1] (1 nM TCAP-1, 16 hours, relative to untreated control, cluster Signalling/Communication, probe 104270), the “Fold change BARK1 (β adrenorgic receptor kinase 1)” value worked out at 0.61 fold. In assay [1] (1 nM TCAP-1, 16 hours, relative to untreated control, cluster Signalling/Communication, probe 104420), the “Fold change INOS (Inducible nitric oxide synthetase)” value was found to be 1.50 fold. Further, in assay [1] (1 nM TCAP-1, 16 hours, relative to untreated control, cluster Signalling/Communication, probe 160976), the “Fold change PCDHγ (protocadherin γ)” value amounted to 0.42 fold. Moreover, the “Fold change TTF-1IP (TTF-1 interacting peptide)” value in assay [1] (1 nM TCAP-1, 16 hours, relative to untreated control, cluster Signalling/Communication, probe 161019) is recorded as 0.50 fold. The “Fold change AKAP8 (A kinase anchor protein 8)” value in assay [1] (1 nM TCAP-1, 16 hours, relative to untreated control, cluster Signalling/Communication, probe 161088) is given as 1.58 fold. In addition, in assay [1] (1 nM TCAP-1, 16 hours, relative to untreated control, cluster Signalling/Communication, probe 161695), the “Fold change SLC6A4 (Serotonin transporter)” value is 1.53 fold. Also, in assay [1] (setting [4]), the AKAP8 gene expression result is given as “upregulation”, the AKAP95 gene expression result is “Downregulation”, the CD95 gene expression entry is on record as “significant decrease” and the EFK1 gene expression result is “down regulated”. In assay [1] (setting [4]), the GAS5 gene expression result is recorded as “significant decrease”, the GDAP10 gene expression result was “upregulated”, the MK167 gene expression entry is reported as “upregulated” and the MOP3 gene expression result is reported as “upregulated”. Further, in assay [1] (setting [4]), the RGL gene expression result is recorded as “down regulated”, the SDPR gene expression result is “significant decrease”, the “inducible nitric oxide (INOS) gene expression” value is “upregulation” and the “intracellular voltage-gated chloride channel (CLCN3) gene expression” value was “upregulation”. For the same molecule, in assay [1] (setting [4]), the “serotonin transporter (SLC6A4) gene expression” value is on record as “upregulation”. Further, in assay [1] (setting [5]), the “genes showing 1.5 fold down-regulation” value was 166 and the genes showing up-regulation amounted to 35.

Turning to `[Cl-].[K+]` [KCl], the calcium mobilization entry in assay [2] was “significant increase”. Also, the “[Ca2+]i peak value” in assay [2] (representative graph) is reported as about 450 nM.

B1: leptin: leptin (recombinant mouse, Bachem Scientific) (protein, UniProt P41160 22-167, looked up)
Leptin: VPIQKVQDDTKTLIKTIVTRINDISHTQSVSAKQRVTGLDFIPGLHPILSLSKMDQTLAVYQQVLTSLPSQNVLQIANDLENLRDLLHLLAFSKSCSLPQTSGLQKPESLDGVLEASLYSTEVVALSRLQGSLQDILQQLDVSPEC
On to B1, for which the “proteins altered by leptin treatment” value in assay [3] is reported as “approximately 250”.
